According to patent US20210252032A1, “DRUGS FOR GRP78 CELL SURFACE TRANSLOCATION AND PAR-4 SECRETION” (University of Kentucky Research Foundation, priority 2020, published 2021):
“Also recorded” adds a separate entry of the source.

How the values were obtained:
lung cancer cells [1] = experiment: GRP78 cell surface translocation in lung cancer cells (FIG. 2); assay type: cell-based; conditions: nanomolar concentrations
Excerpt: (§1) To maximize the apoptotic effect of secreted Par-4 on lung tumors, the second active agent is effective to elevate GRP78 on the surface of cancer cells and thereby complements the apoptotic action of secreted Par-4. […] Approximately 5% of patients with non-small cell lung cancer (NSCLC) have tumors that contain an inversion in chromosome 2 that juxtaposes the 5′ end of the echinoderm microtubule-associated protein-like 4 (EML4) gene with the 3′ end of the ALK gene. This juxtaposition results in the fusion oncogene called EML4-ALK. ALK+ tumors are highly sensitive to therapy with ALKtargeted inhibitors. […] On the other hand, phosphorylation of SRC at tyrosine 530 (Y530) by C-terminal SRC kinase (Csk) and Csk homologous kinase results in inactivation of SRC.

[2] = system: LLC1-derived lung tumor nodules; conditions: CQ in conjunction with CZT, relative to CZT or CQ administered separately; cited from earlier work
normal cells = experiment: Par-4 secretion from normal cells; assay type: cell-based; conditions: levels relative to those achieved previously with chloroquine
[3] = system: tyrosine-protein kinase SRC; experiment: SRC activation (FIG. 3); assay type: cell-based; conditions: lung cancer cells
Excerpt: Dephosphorylation of Y530 by phosphatases results in autophosphorylation of SRC at Y419, leading to activation. SRC activation triggers a signaling cascade that prevents retrograde trafficking of proteins from the Golgi to the ER and promotes GRP78 translocation from the Golgi to the cell surface.

[4] = system: p53-deficient KP7B lung tumor cells; experiment: GRP78 cell surface expression in KP7B lung tumor cells (FIG. 1); assay type: cell-based
Excerpt: as §1

cancer cells = experiment: Cell surface expression of GRP78 in cancer cells (FIG. 1 legend); assay type: cell-based
lung cancer cells [5] = conditions: previous studies (background); cited from earlier work
epithelial BEAS2B cells = experiment: GRP78 cell surface expression in normal BEAS2B cells (FIG. 1); assay type: cell-based
Excerpt: as §1

[6] = system: normal lung fibroblast HEL cells; experiment: GRP78 cell surface expression in normal HEL cells (FIG. 1); assay type: cell-based
Excerpt: as §1

SMILES: COCCn1c2c([n+](Cc3cnccn3)c1C)C(=O)c1ccccc1C2=O [YM155]
- GRP78 cell surface translocation (lung cancer cells [1]): induce cell surface expression of GRP78; also recorded: induced GRP78 cell surface translocation

SMILES: CCN(CC)CCCC(C)Nc1ccnc2cc(Cl)ccc12 (stereo not drawn) [CQ, chloroquine]
- inhibition of LLC1-derived lung tumor nodules [2]: significantly greater inhibition

SMILES: CCc1c2c(nc3ccc(OC(=O)N4CCC(N5CCCCC5)CC4)cc13)-c1cc3c(c(=O)n1C2)COC(=O)[C@]3(O)CC [irinotecan]
- Par-4 secretion from normal cells (normal cells): comparable to, or higher than

SMILES: COc1cccc2c1C(=O)c1c(O)c3c(c(O)c1C2=O)C[C@@](O)(C(=O)CO)C[C@@H]3O[C@H]1C[C@H](N)[C@H](O)[C@H](C)O1 [doxorubicin]
- Par-4 secretion from normal cells (normal cells): comparable to, or higher than

SMILES: CCc1cc2c(cc1N1CCC(N3CCOCC3)CC1)C(C)(C)c1[nH]c3cc(C#N)ccc3c1C2=O [alectinib]
- activation of SRC [3]: cause the activation of SRC

SMILES: C[C@@H](Oc1cc(-c2cnn(C3CCNCC3)c2)cnc1N)c1c(Cl)ccc(F)c1Cl [CZT, Crizotinib]
- Par-4 receptor GRP78 on the cell surface [4]: elevated
- cell surface expression of GRP78 in cancer cells (cancer cells): induces
- Par-4 receptor GRP78 levels on lung cancer cells (lung cancer cells [5]): inducer
- Par-4 receptor GRP78 on the cell surface (epithelial BEAS2B cells): not
- Par-4 receptor GRP78 on the cell surface [6]: not

SMILES: COc1cc([C@@H]2c3cc4c(cc3[C@@H](O[C@@H]3O[C@@H]5CO[C@@H](C)O[C@H]5[C@H](O)[C@H]3O)[C@H]3COC(=O)[C@H]23)OCO4)cc(OC)c1O [etoposide]
- Par-4 secretion from normal cells (normal cells): comparable to, or higher than

SMILES: COc1cc(Nc2ncc3c(n2)-c2ccc(Cl)cc2C(c2c(F)cccc2OC)=NC3)ccc1C(=O)O [alisertib]
- GRP78 cell surface translocation (lung cancer cells [1]): induce cell surface expression of GRP78; also recorded: induced GRP78 cell surface translocation
